Laboratory results published in patent publication US8637525B2, “Compounds for the reduction of beta-amyloid production” (Bristol-Myers Squibb Company, priority 2009, dated 2014).
pIC50: −log10 of the molar value. Counter-ions that a name gives are not always drawn.

test system: Aβ1-42 production; assay: Cellular assay for inhibition of Aβ1-42 production (H4 APP751 SWE clone 8.20); format: cell-based; settings: 19 h, H4 APP751 SWE clone 8.20 cells, 19 h incubation; class symbols; read-out: Activity Rating (Aβ42 cellular IC50)
Summary of the method: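 Viewlux signal read-out; IC50 by curve fit. Sandwich: 565 anti-Aβ42 neoepitope (Wallac conjugate, 0.8 ng/well) + 26D6 anti-N-terminus (APC, 75 ng/well), in Tris-HCl 40 mM pH 7.4/0.2% BSA, o/n 4 °C. Cells exposed to compound 19 h, 37 °C, 5% CO2.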

Compound	pIC50
COc1cc(Nc2nc3c(c(N4CCC(N(C)C)C4)n2)CCC3c2ccc(F)cc2)ccc1-n1cnc(Cl)c1 (single isomer, unassigned) [Example 29A, N-(4-(4-chloro-1H-imidazol-1-yl)-3-methoxyphenyl)-4-(3-(dimethylamino)pyrrolidin-1-yl)-7-(4-fluorophenyl)-6,7-dihydro-5H-cyclopenta[d]pyrimidin-2-amine]	7.00 to 8.00
COc1cc(Nc2nc3c(c(N4CCNCC4)n2)CCC3c2ccc(F)cc2)ccc1-n1cnc(Cl)c1 (stereo not drawn) [Example 31, N-(4-(4-chloro-1H-imidazol-1-yl)-3-methoxyphenyl)-7-(4-fluorophenyl)-4-(piperazin-1-yl)-6,7-dihydro-5H-cyclopenta[d]pyrimidin-2-amine]	6.00 to 7.00
CCNc1nc(Nc2ccc(-n3cnc(Cl)c3)c(OC)c2)nc2c1CN(C)CC2c1ccc(F)cc1 (stereo not drawn) [Example 164A, N2-(4-(4-chloro-1H-imidazol-1-yl)-3-methoxyphenyl)-N4-ethyl-8-(4-fluorophenyl)-6-methyl-5,6,7,8-tetrahydropyrido[4,3-d]pyrimidine-2,4-diamine]	7.00 to 8.00
COc1cc(Nc2nc3c(c(N(C)C)n2)CCCC3c2ccc(F)cc2)ccc1-n1cnc(Cl)c1 (racemic) [Example 127, N^2-(4-(4-Chloro-1H-imidazol-1-yl)-3-methoxyphenyl)-8-(4-fluorophenyl)-N^4,N^4-dimethyl-5,6,7,8-tetrahydroquinazoline-2,4-diamine]	7.00 to 8.00
COc1cc(Nc2nc3c(c(N4CCN(C)CC4)n2)CCC3c2ccc(F)cc2)ccc1-n1cnc(Cl)c1 (stereo not drawn) [Example 30, N-(4-(4-chloro-1H-imidazol-1-yl)-3-methoxyphenyl)-7-(4-fluorophenyl)-4-(4-methylpiperazin-1-yl)-6,7-dihydro-5H-cyclopenta[d]pyrimidin-2-amine]	7.00 to 8.00
COc1cc(Nc2nc3c(c(N4C[C@@H]5C[C@H]4CO5)n2)CCC3c2ccc(F)cc2)ccc1-n1cnc(Cl)c1 (stereo partly drawn) [Example 18, 4-((1S,4S)-2-oxa-5-azabicyclo[2.2.1]heptan-5-yl)-N-(4-(4-chloro-1H-imidazol-1-yl)-3-methoxyphenyl)-7-(4-fluorophenyl)-6,7-dihydro-5H-cyclopenta[d]pyrimidin-2-amine]	7.00 to 8.00
CNc1nc(Nc2ccc(C#N)c3ccccc23)nc2c1CCC2c1ccccc1 (stereo not drawn) [Example 229, 4-(4-(methylamino)-7-phenyl-6,7-dihydro-5H-cyclopenta[d]pyrimidin-2-ylamino)-1-naphthonitrile]	< 6.00
CNc1nc(Nc2ccc(-n3ncnc3C)c(F)c2)nc2c1CCC2c1ccccc1 (stereo not drawn) [Example 3, N2-(3-fluoro-4-(5-methyl-1H-1,2,4-triazol-1-yl)phenyl)-N4-methyl-7-phenyl-6,7-dihydro-5H-cyclopenta[d]pyrimidine-2,4-diamine]	7.00 to 8.00
CNc1nc(Nc2ccc(-n3cnc(Cl)c3)c(OC)c2)nc2c1C=CCC2(O)c1ccccc1 (stereo not drawn) [Example 177, 2-(4-(4-chloro-1H-imidazol-1-yl)-3-methoxyphenylamino)-4-(methylamino)-8-phenyl-7,8-dihydroquinazolin-8-ol]	7.00 to 8.00
CNc1nc(Nc2ccc(-n3cnc(Cl)c3)c(OC)c2)nc2c1CCC2c1ccc(F)c(F)c1 (single isomer, unassigned) [Example 96A, N^2-(4-(4-chloro-1H-imidazol-1-yl)-3-methoxyphenyl)-7-(3,4-difluorophenyl)-N^4-methyl-6,7-dihydro-5H-cyclopenta[d]pyrimidine-2,4-diamine]	8.00 to 8.82
CCNc1nc(Nc2ccc(-n3ncnc3C)c(F)c2)nc2c1COC2c1ccc(F)cc1 (single isomer, unassigned) [Example 78B, N^4-ethyl-N^2-(3-fluoro-4-(5-methyl-1H-1,2,4-triazol-1-yl)phenyl)-7-(4-fluorophenyl)-5,7-dihydrofuro[3,4-d]pyrimidine-2,4-diamine]	7.00 to 8.00

same assay, conditions: 19 h, H4 APP751 SWE clone 8.20 cells, 19 h incubation; read-out: Activity Rating (Aβ42 cellular IC50), numeric value

Compound	pIC50
COc1cc(Nc2nc(NC3CCC3)c3c(n2)C(c2ccccc2)CC3)ccc1-n1cnc(Cl)c1 (stereo not drawn) [Example 9, N2-(4-(4-chloro-1H-imidazol-1-yl)-3-methoxyphenyl)-N4-cyclobutyl-7-phenyl-6,7-dihydro-5H-cyclopenta[d]pyrimidine-2,4-diamine]	8.09
CNc1nc(Nc2ccc(C#N)c(C#N)c2)nc2c1CCC2c1ccccc1 (stereo not drawn) [Example 237, 4-(4-(methylamino)-7-phenyl-6,7-dihydro-5H-cyclopenta[d]pyrimidin-2-ylamino)phthalonitrile]	7.54
CCNc1nc(Nc2ccc(-n3cnc(Cl)c3)c(OC)c2)nc2c1CN(CC(F)(F)F)CC2c1ccccc1 (stereo not drawn) [Example 196B]	7.27
CCC1CCCN1c1nc(Nc2ccc(-n3cnc(Cl)c3)c(OC)c2)nc2c1CCC2c1ccc(F)cc1 (single isomer, unassigned) [Example 24B, N-(4-(4-chloro-1H-imidazol-1-yl)-3-methoxyphenyl)-4-(2-ethylpyrrolidin-1-yl)-7-(4-fluorophenyl)-6,7-dihydro-5H-cyclopenta[d]pyrimidin-2-amine]	6.70
COc1cc(Nc2nc3c(c(N4CC(F)(F)C4)n2)CCC3c2ccc(OC(F)(F)F)cc2)ccc1-n1cnc(Cl)c1 (racemic) [Example 99, N-(4-(4-Chloro-1H-imidazol-1-yl)-3-methoxyphenyl)-4-(3,3-difluoroazetidin-1-yl)-7-(4-(trifluoromethoxy)phenyl)-6,7-dihydro-5H-cyclopenta[d]pyrimidin-2-amine]	7.72
CNc1nc(Nc2ccc(-n3cnc(C)n3)c(OC)c2)nc2c1CCC2c1ccc(F)cc1 (racemic) [Example 44, 7-(4-fluorophenyl)-N2-(3-methoxy-4-(3-methyl-1H-1,2,4-triazol-1-yl)phenyl)-N4-methyl-6,7-dihydro-5H-cyclopenta[d]pyrimidine-2,4-diamine]	7.89
CCNc1nc(Nc2ccc(-n3cnc(Cl)c3)c(OC)c2)nc2c1COCC2c1ccc(F)c(F)c1 (racemic) [Example 113, N2-(4-(4-chloro-1H-imidazol-1-yl)-3-methoxyphenyl)-8-(3,4-difluorophenyl)-N4-ethyl-7,8-dihydro-5H-pyrano[4,3-d]pyrimidine-2,4-diamine, TFA]	8.24

same assay, conditions: H4 APP751 SWE clone 8.20 cells, 19 h incubation; class symbols; TFA; read-out: Activity Rating (Aβ42 cellular IC50)

Compound	pIC50
COc1cc(Nc2nc(N[C@@H](C)C3CC3)c3c(n2)C(c2ccc(F)cc2)CC3)ccc1-n1cnc(Cl)c1 (mixture of isomers) [Example 50, N2-(4-(4-chloro-1H-imidazol-1-yl)-3-methoxyphenyl)-N4-((S)-1-cyclopropylethyl)-7-(4-fluorophenyl)-6,7-dihydro-5H-cyclopenta[d]pyrimidine-2,4-diamine, TFA]	8.00 to 8.82

same assay, conditions: H4 APP751 SWE clone 8.20 cells, 19 h incubation; class symbols; read-out: Activity Rating (Aβ42 cellular IC50)

Compound	pIC50
CNc1nc(Nc2ccc(-n3cnc(C)n3)c(OC)c2)nc2c1CN(C)CC2c1ccc(F)cc1 (stereo not drawn) [Example 198, 8-(4-fluorophenyl)-N2-(3-methoxy-4-(3-methyl-1H-1,2,4-triazol-1-yl)phenyl)-N4,6-dimethyl-5,6,7,8-tetrahydropyrido[4,3-d]pyrimidine-2,4-diamine]	7.00 to 8.00
COc1cc(Nc2nc3c(c(N(C)C)n2)CCCC3c2ccc(F)cc2)ccc1-n1cnc(Cl)c1 (single isomer, unassigned) [Example 127B, N^2-(4-(4-chloro-1H-imidazol-1-yl)-3-methoxyphenyl)-8-(4-fluorophenyl)-N^4,N^4-dimethyl-5,6,7,8-tetrahydroquinazoline-2,4-diamine]	7.00 to 8.00
COc1cc(Nc2nc3c(c(N(C)C)n2)CCCC3c2ccc(F)cc2)ccc1-n1cnc(Cl)c1 (single isomer, unassigned) [Example 127A, N^2-(4-(4-chloro-1H-imidazol-1-yl)-3-methoxyphenyl)-8-(4-fluorophenyl)-N^4,N^4-dimethyl-5,6,7,8-tetrahydroquinazoline-2,4-diamine]	8.00 to 8.82
COc1cc(Nc2nc3c(c(N4CC(F)(F)C4)n2)COCC3c2ccc(Cl)cc2)ccc1-n1cnc(Cl)c1 (single isomer, unassigned) [Example 66B, N-(4-(4-chloro-1H-imidazol-1-yl)-3-methoxyphenyl)-8-(4-chlorophenyl)-4-(3,3-difluoroazetidin-1-yl)-7,8-dihydro-5H-pyrano[4,3-d]pyrimidin-2-amine]	8.00 to 8.82
CCN(C)c1nc(Nc2ccc(-n3cnc(Cl)c3)c(OC)c2)nc2c1CCN(S(C)(=O)=O)C2c1ccc(F)cc1 (stereo not drawn) [Example 172B, N2-(4-(4-chloro-1H-imidazol-1-yl)-3-methoxyphenyl)-N4-ethyl-8-(4-fluorophenyl)-N4-methyl-7-(methylsulfonyl)-5,6,7,8-tetrahydropyrido[3,4-d]pyrimidine-2,4-diamine]	6.00 to 7.00
CNc1nc(Nc2ccc(-n3ncnc3C)c(OC)c2)nc2c1CN(C)CC2c1ccc(F)cc1 (stereo not drawn) [Example 199B, 8-(4-fluorophenyl)-N2-(3-methoxy-4-(5-methyl-1H-1,2,4-triazol-1-yl)phenyl)-N4,6-dimethyl-5,6,7,8-tetrahydropyrido[4,3-d]pyrimidine-2,4-diamine]	8.00 to 8.82
COc1cc(Nc2nc3c(c(N4CC(Cl)C4)n2)CCC3c2ccccc2)ccc1-n1cnc(Cl)c1 (stereo not drawn) [Example 181, N-(4-(4-chloro-1H-imidazol-1-yl)-3-methoxyphenyl)-4-(3-chloroazetidin-1-yl)-7-phenyl-6,7-dihydro-5H-cyclopenta[d]pyrimidin-2-amine]	7.00 to 8.00

same assay, conditions: H4 APP751 SWE clone 8.20 cells, 19 h incubation; read-out: Activity Rating (Aβ42 cellular IC50), numeric value

Compound	pIC50
CNc1nc(Nc2ccc(-n3cnc(Cl)c3)c(OC)c2)nc2c1/C(=N/OC)CC2c1ccccc1 (stereo not drawn) [Example 201A, (E)-2-(4-(4-chloro-1H-imidazol-1-yl)-3-methoxyphenylamino)-4-(methylamino)-7-phenyl-6,7-dihydro-5H-cyclopenta[d]pyrimidin-5-one O-methyl oxime]	8.00
